Data from patent US8637685B2, “Schweinfurthin analogues” (University of Iowa Research Foundation, priority 2008, dated 2014).

What was measured:
A-549 cells = assay: Test A cellular morphology (phalloidin/DAPI staining), A-549; type: cell-based, human
Experimental: (§1) Cell Culture—SF-295 cells were maintained in RPMI 1640 supplemented with 10% fetal calf serum, and penstreptamycin. A-549 cells were maintained in F-12 media with 10% fetal calf serum and penstreptamycin. Both cell lines were incubated at 37° C. and 5% CO2.
(§2) Cellular Morphology—Cells were plated on sterilized coverslips in 6-well plates and allowed to reach 65% confluency before treatment with indicated compounds. At the conclusion of the treatment interval, cells were rinsed and fixed with 3.7% formaldehyde for 15 minutes. After subsequent rinses in PBS, cells were permeabilized with 0.2% triton X-100 for 4 minutes and rinsed in PBS. Cells were then incubated with 1% BSA for 30 minutes before incubation with phalloidin stain (Molecular Probes, Eugene, Oreg.) for 20 minutes. At the completion of staining interval, cells were rinsed and mounted using Vectashield mounting media containing DAPI (Vector laboratories, Inc., Burlingame, Calif.). Slides were imaged using a Bio-Rad Multi-photon microscope and processed using Image-J software.

SF-295 cells = assay: Test A cellular morphology (phalloidin/DAPI staining), SF-295; type: cell-based, human
Experimental: as §1, §2

[1] = Fluorescence properties of target compounds (Table 1); type: physicochemical; settings: for Absorbtion Maximum / Emission Maximum / Extinction Coefficient: Concentration 50 uM; for Extinction Coefficient: in M-1 cm-1 (unit assumed)
Excerpt: This shift to the green region for the fluorescence emission allows cellular studies on these compounds without any interference from autofluroescence.

SF-295 cell line = assay: Test C MTT assay in schweinfurthin sensitive SF-295 cell line; type: cell-based, human
Excerpt: (§3) The National Cancer Institute 60 human tumor cell line anti-cancer assay has been used for indicating the schweinfurthin-like activity of various analogues. Additionally, a three pronged approach that allows a more rapid turn around can be used. This three pronged testing scheme involves 1) MTT assay in schweinfurthin sensitive human glioma derived SF-295 cell line; 2) MTT assay in the schweinfurthin resistant human non-small cell lung cancer derived cell line A549; and 3) microscopic observation of cell morphology changes at 24 and 48 hours. Compounds displaying schweinfurthin-like activity show a dramatic change in cell morphology at concentrations consistent with anti-cancer activity. This three pronged testing scheme is a very simple method that has successfully identified compounds with and without schweinfurthin-like activity. Accordingly, in one embodiment the invention provides a method for identifying a compound with schweinfurthin-like activity comprising, subjecting the compound to 1) an MTT assay in a schweinfurthin sensitive human glioma derived SF-295 cell line; 2) an MTT assay in the schweinfurthin resistant human non-small cell lung cancer derived cell line A549; and 3) a microscopic observation of cell morphology changes at one or more preselected time points (e.g. at about 24 or 48 hours).

[2] = tested on: SF-295 vs. A549 cell lines; assay: Test C three pronged testing scheme for schweinfurthin-like activity; type: cell-based, human; settings: for schweinfurthin-like activity: three pronged scheme: MTT SF-295, MTT A549, morphology
Excerpt: as §3

A549 cell line = assay: Test C MTT assay in schweinfurthin resistant A549 cell line; type: cell-based, human; settings: A549 lung cancer line
Excerpt: as §3

[3] = Compound stability (no method given); type: physicochemical

COc1cc(C=Cc2cc(O)c(CC=C(C)CCC=C(C)C)c(O)c2)cc2c1OC1(C)CCC(O)C(C)(C)C1C2 (stereo not shown) [3-deoxyschweinfurthin B]
cell morphology (A-549 cells; 500 nM, 24 hours or 48 hours): does not induce a morphologic change | cell morphology (SF-295 cells; 500 nM, 24 hours): morphologic characteristics similar to control cells | cell morphology (SF-295 cells; 500 nM, 48 hours): characteristic changes in cell morphology | cell morphology changes induced by schweinfurthins (SF-295 cells; time points beyond 24 hours): a decrease in cell area and a reduction in F-actin

COc1cc(/C=C/c2cc(O)c(/C=C/c3ccc([N+](=O)[O-])cc3)c(O)c2)cc2c1O[C@]1(C)CC[C@@H](O)C(C)(C)[C@H]1C2 [Compound 219]
stokes shift compared with amine compounds 227, 232 and 237 [1]: larger stokes shifts than the amine compounds | Absorbtion Maximum [1]: 426 | Emission Maximum [1]: 593 | Extinction Coefficient [1]: 26500 | activity relative to standard 3-deoxyschweinfurthin B (SF-295 cell line; SF-295 cell line): almost identical activity to the standard 3-deoxyschweinfurthin B | potency rank among compounds tested (SF-295 cell line; Test C scheme): most potent of these compounds | schweinfurthin-like activity [2]: still shows the significant drop in activity in the A549 line vs. the SF-295 line | potency relative to 3-deoxyschweinfurthin B (A549 cell line): almost an order of magnitude more potent than 3-deoxyschweinfurthin B

COc1cc(/C=C/c2cc3c(c(OC)c2)O[C@]2(C)CC[C@@H](O)C(C)(C)[C@H]2C3)cc(O)c1/C=C/c1ccc([N+](=O)[O-])cc1 [Compound 225]
stokes shift compared with amine compounds 227, 232 and 237 [1]: larger stokes shifts than the amine compounds | Absorbtion Maximum [1]: 429 | Emission Maximum [1]: 557 | Extinction Coefficient [1]: 17902 | activity relative to the parent resorcinol (SF-295 cell line; assay not specified): only slightly diminished activity | stability relative to the parent resorcinol [3]: much improved stability | schweinfurthin-like activity [2]: displayed activity as expected

COc1cc(/C=C/c2cc3c(c(OC)c2)O[C@]2(C)C[C@@H](O)[C@@H](O)C(C)(C)[C@H]2C3)cc(O)c1/C=C/c1ccc([N+](=O)[O-])cc1 [Compound 235]
stokes shift compared with amine compounds 227, 232 and 237 [1]: larger stokes shifts than the amine compounds

COc1cc(/C=C/c2cc3c(c(OC)c2)O[C@]2(C)C[C@@H](O)[C@@H](O)C(C)(C)[C@H]2C3)cc(O)c1/C=C/c1ccc(N)cc1 [Compound 237]
potency relative to 3-deoxyschweinfurthin B ([2]; cell line not specified): neither of the amine substituted analogues (227 and 237) were more potent than 3-deoxyschweinfurthin B | activity relative to 3-deoxy compound 227 ([2]; dihydroxylated A-ring vs. 3-deoxy): not significantly more active than the 3-deoxy compound 227 | schweinfurthin-like activity [2]: did show all of the hall marks of schweinfurthin like activity

C[C@@H](N)[C@H]1CC[C@H](C(=O)Nc2ccncc2)CC1 [Compound Y-27632]
cell morphology (A-549 cells; 10 μM): induces ruffled F-actin at the edges of the A-549 cells | cell morphology (SF-295 cells; 10 μM): caused jagged F-actin at the periphery and long slender projections to form
